Test results reported in patent publication US9682928B2 (NeuroPro Therapeutics, Inc., priority 2009, dated 2017).
“And” between values parts separate entries of the source, which are not always exact repeats. Equal entries are not always repeated.

How the values were obtained:
[1] = target: T1, α1β3γ2 GABAA receptor isoform (Homo sapiens, UniProt P14867+P18507+P28472); test: Whole-cell patch clamp, transfected HEK-293T cells; type: cell-based, rat or human; conditions: FIG. 36
T1 construct: expressed in transfected cells; host or cells: HEK-293T, transient transfection
T1 sequence (P14867 28-456): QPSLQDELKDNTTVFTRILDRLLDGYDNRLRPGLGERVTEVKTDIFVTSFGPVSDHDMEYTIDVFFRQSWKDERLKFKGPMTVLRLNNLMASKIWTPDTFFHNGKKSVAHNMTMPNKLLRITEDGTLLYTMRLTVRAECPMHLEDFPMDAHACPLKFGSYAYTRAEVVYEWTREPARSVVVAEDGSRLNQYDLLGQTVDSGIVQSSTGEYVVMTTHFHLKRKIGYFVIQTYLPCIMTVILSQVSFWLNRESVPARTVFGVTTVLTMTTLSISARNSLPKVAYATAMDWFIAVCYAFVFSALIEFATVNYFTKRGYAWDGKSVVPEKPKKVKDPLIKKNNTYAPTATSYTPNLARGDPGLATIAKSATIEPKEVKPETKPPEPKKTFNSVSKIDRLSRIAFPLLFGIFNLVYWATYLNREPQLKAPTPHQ
T1 sequence (P28472 26-473): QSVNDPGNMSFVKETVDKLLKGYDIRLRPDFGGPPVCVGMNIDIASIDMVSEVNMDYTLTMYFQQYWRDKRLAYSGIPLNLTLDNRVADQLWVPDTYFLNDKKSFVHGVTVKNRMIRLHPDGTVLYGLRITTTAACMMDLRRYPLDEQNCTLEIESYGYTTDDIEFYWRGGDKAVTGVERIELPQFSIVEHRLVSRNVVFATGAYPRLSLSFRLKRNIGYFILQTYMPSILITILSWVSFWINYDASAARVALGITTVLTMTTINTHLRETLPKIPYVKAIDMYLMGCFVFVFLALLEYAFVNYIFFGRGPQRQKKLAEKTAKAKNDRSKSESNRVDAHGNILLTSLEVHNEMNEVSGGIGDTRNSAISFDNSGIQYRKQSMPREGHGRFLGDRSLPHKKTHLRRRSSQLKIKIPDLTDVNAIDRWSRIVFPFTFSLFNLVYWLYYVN
T1 sequence (P18507 40-475): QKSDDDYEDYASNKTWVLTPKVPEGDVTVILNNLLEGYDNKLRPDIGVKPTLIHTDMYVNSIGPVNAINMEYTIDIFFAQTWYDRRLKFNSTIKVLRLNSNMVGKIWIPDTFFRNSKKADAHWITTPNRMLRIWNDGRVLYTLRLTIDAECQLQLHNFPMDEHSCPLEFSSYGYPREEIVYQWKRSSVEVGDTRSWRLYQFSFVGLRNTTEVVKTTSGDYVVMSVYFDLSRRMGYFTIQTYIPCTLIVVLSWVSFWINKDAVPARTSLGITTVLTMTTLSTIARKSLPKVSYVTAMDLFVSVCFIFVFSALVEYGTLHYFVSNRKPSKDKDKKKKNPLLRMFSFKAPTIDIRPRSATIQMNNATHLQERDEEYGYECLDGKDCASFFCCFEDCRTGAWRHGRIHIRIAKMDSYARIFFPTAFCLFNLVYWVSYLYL
Description: The addition of GABA to […] activates the recombinant expressed GABAA receptors, creating an ion movement through the ion channel in the GABAA receptor. The electrical current generated by the movement of chloride ions into the cells can be quantified.
HEK-293T cells were transiently transfected with rat or human GABAA receptor subunits. Whole-cell patch clamp recording was performed at −50 mV unless otherwise indicated. Test compounds was diluted from a freshly made stock in DMSO, GABA was prepared from a frozen stock. For each experiment GABA or GABA+a test compound was applied for 5 seconds, and the electrical current generated by the movement of chloride ions into the cells was measured and recorded as a trace of current versus time.
Compounds described herein (e.g., NTP-2014) were tested at high and low GABA concentrations against multiple GABAA receptor isoforms (e.g., α1β3γ2, α2β3 γ2, α3β3γ2, α3β3γ2, α4β3γ2, α5β3γ2, α6β3γ2). […] NTP-2014 inhibits the currents in the parasynaptic α4 GABAA receptor isoform in GABAergic interneurons. […]

[2] = Brain levels in rat following IP administration; type: in vivo; conditions: NTP-2006 100 mg/kg IP, PBx pretreated
[3] = target: T2, Na+K+Cl− co-transporter (Rattus norvegicus, UniProt E9PTX9); test: Na+K+Cl− cotransporter assay, 86Rb uptake in A7r5 cells; type: cell-based; conditions: 10 minutes at 37° C.
T2 construct: endogenous in cells; host or cells: A7r5 cells
T2 sequence (E9PTX9 1-1203): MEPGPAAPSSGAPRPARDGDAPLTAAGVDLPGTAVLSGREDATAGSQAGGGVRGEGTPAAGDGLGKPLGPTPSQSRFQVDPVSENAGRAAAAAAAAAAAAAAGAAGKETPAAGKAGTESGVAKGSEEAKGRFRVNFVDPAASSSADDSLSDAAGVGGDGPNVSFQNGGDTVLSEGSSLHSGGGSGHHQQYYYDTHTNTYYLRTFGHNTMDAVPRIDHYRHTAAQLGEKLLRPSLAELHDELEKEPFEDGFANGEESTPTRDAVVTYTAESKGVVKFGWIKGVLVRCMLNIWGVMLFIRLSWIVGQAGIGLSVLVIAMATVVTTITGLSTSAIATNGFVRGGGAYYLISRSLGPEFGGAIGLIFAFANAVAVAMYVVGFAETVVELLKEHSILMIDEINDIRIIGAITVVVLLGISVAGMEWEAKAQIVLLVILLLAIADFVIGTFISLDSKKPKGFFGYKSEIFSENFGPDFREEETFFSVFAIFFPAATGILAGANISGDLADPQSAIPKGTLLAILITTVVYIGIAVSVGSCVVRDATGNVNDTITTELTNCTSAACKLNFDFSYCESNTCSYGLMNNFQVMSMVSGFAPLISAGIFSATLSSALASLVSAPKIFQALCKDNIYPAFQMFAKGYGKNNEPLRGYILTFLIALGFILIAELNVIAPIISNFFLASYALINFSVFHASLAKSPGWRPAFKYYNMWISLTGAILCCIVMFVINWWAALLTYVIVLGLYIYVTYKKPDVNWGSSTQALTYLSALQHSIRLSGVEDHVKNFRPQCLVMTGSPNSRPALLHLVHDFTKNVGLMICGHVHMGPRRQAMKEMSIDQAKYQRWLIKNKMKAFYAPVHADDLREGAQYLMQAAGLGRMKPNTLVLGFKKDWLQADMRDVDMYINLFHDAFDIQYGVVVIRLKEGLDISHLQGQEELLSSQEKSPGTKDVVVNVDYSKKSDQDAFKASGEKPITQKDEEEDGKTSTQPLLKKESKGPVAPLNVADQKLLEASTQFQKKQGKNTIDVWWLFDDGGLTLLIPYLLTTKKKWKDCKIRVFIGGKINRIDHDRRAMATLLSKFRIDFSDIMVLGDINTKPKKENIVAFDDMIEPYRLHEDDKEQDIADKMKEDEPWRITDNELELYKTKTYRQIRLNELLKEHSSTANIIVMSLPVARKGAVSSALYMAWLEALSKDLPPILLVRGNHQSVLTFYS
Description: Na^+K^+Cl^− co-transporter activity was measured in vitro in A7r5 cells by measuring their uptake of ^86Rb (0.2 μCi) in 10 minutes at 37° C. as detected by scintillation counting. See Chassande, et al. (1988) “The Na^+/K^+/Cl^− Cotransport in C6 glioma cells. Properties and role in volume regulation.” Eur. J. Biochem. 171: 425433.

[4] = tested on: Male Rj: NMRI mice; test: Formalin paw test (late phase) in the mouse; type: in vivo
Description: The method described herein detects analgesic/anti-inflammatory activity, generally used to test compounds for pain relief, in particular diabetic neuropathy or nociceptive neuropathy. See Wheeler-Aceto, et al. (1991) Psychopharmacology 104: 35-44.
Mice were given an intraplantar injection of 5% formalin (25 μl) into the posterior left paw. This treatment induces paw licking in control animals. Mice were briefly observed at 1 minute intervals between 15 and 50 minutes after the injection of formalin and the number of occasions that the mice were observed licking the injected paw was recorded. There were 10 mice per group and the test was performed “blind.”
The experiment included 11 groups. Data was analyzed by comparing treated groups with vehicle control using unpaired Mann-Whitney U tests.
Gabapentin (100 mg/kg i.p.) administered under the same experimental conditions, was used as reference substance. The experiment included several groups. Data was analyzed by comparing treated groups with vehicle control using unpaired Mann-Whitney U tests.

[5] = tested on: adult mice (C57/B16); test: Mesial temporal lobe epilepsy model (mice), hippocampal discharges; type: in vivo, mouse; conditions: 50 mg/kg for NTP-2014 and NTP-2026; 150 mg/kg for NTP-2024, NTP-2006, NTP-1007, NTP-1003
Description: Antiepileptic protocol: Up to eight adult mice (C57/B16) are injected with kainate (1 nmol in 50 nl) and are implanted with a bipolar electrode in the dorsal hippocampus using stereotaxic techniques under general anesthesia. […] Drug conditions are counter-balanced, the animals being used as their own controls. Digital EEG recordings are performed in freely moving animals for 20 min pre-injection and 80 min post-injection. The effects of the injected compound are compared versus vehicle injections and reference period (pre-dose). Upon completion of the experiment, standard histological analysis are performed to verify electrode location, cell losses in CA1, CA3 and hilus, as well as dentate gyrus dispersion. Only animals with all characteristics of MTLE are used in data analysis. […] The results below are normalized to the pre-dose condition for each of the treatment group including DMSO and saline vehicle controls. Doses of test article compounds were 50 mg/kg for NTP-2014 and NTP-2026 and 150 mg/kg for NTP-2024, NTP-2006, NTP-1007, and NTP-1003. Therefore the bumetanide, furosemide, piretanide, azosemide, and torsemide esters and amide analogs described herein may be used in therapeutic methods to treat seizures.

[6] = Blood levels in rat following IP administration; type: in vivo

Compound: CN1C(=O)CC(=O)N(c2ccccc2)c2cc(Cl)ccc21 [clobazam]
- Effect on inhibitory currents in α1 subunit containing GABAA receptors [1]: increase both the amplitude and time course of inhibitory currents

Compound: CCCCNc1cc(C(=O)OCC(=O)N(CC)CC)cc(S(N)(=O)=O)c1Oc1ccccc1 [NTP-2006, N,N-Diethylaminocarbonylmethyl 3-Aminosulfonyl-5-butylamino-4-phenoxybenzoate]
- Concentration of NTP-2006 in rat brain ([2]; 15 m): 5.259 ng/mL and 2.937 ng/mL
- Concentration of NTP-2006 in rat brain ([2]; 6 h): 1.523 ng/mL and 1.572 ng/mL
- concentration at 15 min ([2]; rat, brain, intraperitoneal, 100 mg/kg, 15 m): 2.95 ng/mL
- concentration at 6 h ([2]; rat, brain, intraperitoneal, 100 mg/kg, 6 h): 1.88 ng/mL
- inhibition at 10 µM ([3]; read-out: % Inhibition of Control Values): 50%
- remaining activity at 10 µM ([3]; read-out: % of Control Value): 49.6%
- Licking Score % Pain Decrease ([4]; 50 μmol/kg i.p.): 40.0%
- Licking Score % Pain Decrease ([4]; 250 μmol/kg i.p.): 61%
- Licking Score % Pain Decrease ([4]; 500 μmol/kg i.p.): 60%
- Anti-inflammatory and analgesic effects in formalin paw test (FIG. 16) ([4]; 50, 250, 500 μmole/kg): show anti-inflammatory and analgesic effects
- Licking Score (15 to 50 minutes post-formalin injection) % Change from Control ([4]; i.p. 30 minutes before the test, 50 μmol/kg (NTP-2006 23.9, NTP-2024 21.7, NTP-1007 19.3, NTP-2014 21, NTP-2026 23.1 mg/kg)): −40%
- Licking Score (15 to 50 minutes post-formalin injection) % Change from Control ([4]; i.p., 250 μmol/kg (NTP-2006 119, NTP-2024 108, NTP-1007 96.5, NTP-2014 105, NTP-2026 116 mg/kg)): −61%
- Licking Score (15 to 50 minutes post-formalin injection) % Change from Control ([4]; i.p., 500 μmol/kg (NTP-2006 239, NTP-2024 217, NTP-1007 193, NTP-2014 210, NTP-2026 231 mg/kg)): −60%
- Cumulative duration of hippocampal discharges [5]: decreased
- Number of hippocampal discharges [5]: decreased
- Concentration of NTP-2006 in rat blood ([6]; NTP-2006 100 mg/kg IP, PBx pretreated, 15 m): 2.008 ng/mL and 1.728 ng/mL
- Concentration of NTP-2006 in rat blood ([6]; NTP-2006 100 mg/kg IP, PBx pretreated, 1 h): BLQ (Below Limit of Quantitation (<1 ng/ml))
- Concentration of NTP-2006 in rat blood ([6]; NTP-2006 100 mg/kg IP, PBx pretreated, 2 h): BLQ (Below Limit of Quantitation (<1 ng/ml))
- Concentration of NTP-2006 in rat blood ([6]; NTP-2006 100 mg/kg IP, PBx pretreated, 4 h): BLQ (Below Limit of Quantitation (<1 ng/ml))
- Concentration of NTP-2006 in rat blood ([6]; NTP-2006 100 mg/kg IP, PBx pretreated, 6 h): BLQ (Below Limit of Quantitation (<1 ng/ml))
- Degradation to bumetanide in the blood ([6]; i.p., rats): degrades into bumetanide
- concentration at 15 min ([6]; rat, whole blood, intraperitoneal, 100 mg/kg, NTP-2006 100 mg/kg IP, PBx pretreated, 15 m): 3.32 ng/mL
- concentration at 30 min ([6]; rat, whole blood, intraperitoneal, 100 mg/kg, NTP-2006 100 mg/kg IP, PBx pretreated, 30 m): 3.35 ng/mL

Compound: CN1C(=O)CN=C(c2ccccc2)c2cc(Cl)ccc21 [diazepam]
- Effect on inhibitory currents in α1 subunit containing GABAA receptors [1]: increase both the amplitude and time course of inhibitory currents

Compound: Cc1ccc(-c2nc3ccc(C)cn3c2CC(=O)N(C)C)cc1 [zolpidem]
- Effect on inhibitory currents in α1 subunit containing GABAA receptors [1]: increase both the amplitude and time course of inhibitory currents
